Data: US10188108B2, “Fused bicyclic heterocycle derivatives as pesticides” (BAYER CROPSCIENCE AKTIENGESELLSCHAFT, priority 2015, dated 2019)
Read-outs that look alike come from different tables or passages of the source.

Tests used:
[1] = log P by HPLC on a reversed-phase column (C 18), EEC Directive 79/831 Annex V.A8; assay type: physicochemical; conditions: for LOGP_NEUTRAL: pH 7.8, 0.001 molar aqueous ammonium hydrogencarbonate/acetonitrile; for chromatographic logP: reversed-phase HPLC column (C 18)
Experimental: The log P values are measured according to EEC Directive 79/831 Annex V.A8 by HPLC (high-performance liquid chromatography) on a reversed-phase column (C 18). Temperature: 55° C.
The LC-MS determination in the acidic range is effected at pH 2.7 using 0.1% aqueous formic acid and acetonitrile (contains 0.1% formic acid) as eluents; linear gradient from 10% acetonitrile to 95% acetonitrile. Called log P (HCOOH) in the table.
LC-MS determination in the neutral range is effected at pH 7.8 with 0.001 molar aqueous ammonium hydrogencarbonate solution and acetonitrile as eluents; linear gradient from 10% acetonitrile to 95% acetonitrile. Called log P (neutral) in the table.
Calibration is carried out using unbranched alkan-2-ones (having 3 to 16 carbon atoms) with known log P values (log P values determined on the basis of the retention times by linear interpolation between two successive alkanones).

Spodoptera frugiperda = Spodoptera frugiperda - spray test; assay type: in vivo; conditions: 500 g/ha, after 7 days, caterpillars on maize leaf discs
Experimental: (§1) • Solvent: 78.0 parts by weight of acetone • 1.5 parts by weight of dimethylformamide • Emulsifier: alkylaryl polyglycol ether
(§2) To produce a suitable preparation of active compound, 1 part by weight of active compound is dissolved using the stated parts by weight of solvent and made up with water containing an emulsifier concentration of 1000 ppm until the desired concentration is attained. To produce further test concentrations, the preparation is diluted with emulsifier-containing water.
Leaf discs of maize (Zea mays) are sprayed with an active compound preparation of the desired concentration and, after drying, populated with caterpillars of the armyworm (Spodoptera frugiperda).
After 7 days, the efficacy in % is determined. 100% means that all the caterpillars have been killed; 0% means that no caterpillars have been killed.

Phaedon cochleariae = Phaedon cochleariae - spray test; assay type: in vivo; conditions: after 7 days, larvae on Chinese cabbage leaf discs
Experimental: as §1, §2
After 7 days, the efficacy in % is determined. 100% means that all the beetle larvae have been killed; 0% means that no beetle larvae have been killed.

[2] = acidic range, pH 2.7, 0.1% aqueous formic acid/acetonitrile, 55° C.
[3] = acidic range, pH 2.7, 0.1% aqueous formic acid/acetonitrile, 55° C., read-out: LOGP_HCOOH
[4] = neutral range, pH 7.8, value in preparation example text, read-out: log P (neutral)
[5] = acidic range, pH 2.7, value in preparation example text, read-out: log P (acidic)

| Compound | LOGP_HCOOH [1, 2] | LOGP_NEUTRAL ([1]; neutral range, 55° C.) | efficacy (Spodoptera frugiperda) | efficacy (Phaedon cochleariae; 500 g/ha) | other results |
| --- | --- | --- | --- | --- | --- |
| CCSc1c(-c2nc3cc(C(F)(F)F)ncc3n2C)nc2ccc(Cl)cn12 [Example I-3] | 3.59 | – | 100% | – | – |
| CCSc1c(-c2nc3cc(C(F)(F)F)ncc3n2C)nc2ccc(C(F)(F)F)cn12 [Example I-5] | 3.81 | 3.75 | 100% | – | – |
| CC[S+]([O-])c1c(-c2nc3cc(C(F)(F)F)ncc3n2C)nc2ccc(C(F)(F)F)cn12 (stereo not drawn) [Example I-8] | 3.25 | – | 100% | 100% | – |
| CCSc1c(-c2nc3cc(C(F)(F)F)ccc3n2C)nc2ccccn12 [Example I-9] | 3.25 | 3.41 | – | 100% | – |
| CCS(=O)(=O)c1c(-c2nc3cc(C(F)(F)F)ccc3o2)nc2ccccn12 [Example I-12] | 2.92 | 2.94 | 83% | 83% | – |
| CCSc1c(-c2nc3cc(C(F)(F)F)ncc3n2C)nc2c(C(F)(F)F)cccn12 [Example I-13] | 1.40 | 3.71 | 100% | 100% | – |
| CCSc1c(-c2nc3cc(C(F)(F)F)ncc3n2C)nc2c(Cl)cccn12 [Example I-14] | 3.33 | 3.34 | – | – | – |
| CCSc1cccn2c(SCC)c(-c3nc4cc(C(F)(F)F)ncc4n3C)nc12 [Example I-15] | 3.99 | 3.93 | – | – | – |
| CCSc1c(-c2nc3cc(C(F)(F)F)ncc3n2C)nc2cc(C(F)(F)F)ccn12 [Example I-16] | 3.80 | 3.80 | 100% | 100% | – |
| CCSc1c(-c2nc3cc(C(F)(F)F)ncc3n2C)nc2cccc(C(F)(F)F)n12 [Example I-20] | 3.50 | – | – | – | – |
| CCS(=O)(=O)c1c(-c2nc3cc(C(F)(F)F)ncc3n2C)nc2c(C(F)(F)F)cccn12 [Example I-24] | 2.92 | 2.90 | 100% | 100% | – |
| CC[S+]([O-])c1c(-c2nc3cc(C(F)(F)F)ncc3n2C)nc2c(C(F)(F)F)cccn12 (stereo not drawn) [Example I-25] | 3.29 | 3.21 | 100% | 100% | – |
| CCSc1c(-c2nc3cc(C(F)(F)F)ccc3n2C)nc2cccc(C)n12 [Example I-26] | 3.35 | – | – | 83% | – |
| CCSc1c(-c2nc3cc(C(F)(F)F)ccc3n2C)nc2cccc(C(F)(F)F)n12 [Example I-27] | 4.09 | – | – | – | – |
| CCSc1c(-c2nc3cc(C(F)(F)F)ccc3n2C)nc2ccc(C(F)(F)F)cn12 [Example I-28] | 4.47 | – | 100% | – | – |
| CCSc1c(-c2nc3cc(C(F)(F)F)ccc3n2C)nc2ccc(Cl)cn12 [Example I-29] | 4.12 | – | 100% | 100% | – |
| CCSc1c(-c2nc3cc(C(F)(F)F)ccc3n2C)nc2cc(C(F)(F)F)ccn12 [Example I-30] | 4.50 | – | 100% | 83% | – |

| Compound | LOGP_HCOOH [1, 2] | LOGP_NEUTRAL ([1]; neutral range, 55° C.) | efficacy (Spodoptera frugiperda) | efficacy (Phaedon cochleariae; 500 g/ha) | other results |
| --- | --- | --- | --- | --- | --- |
| CCSc1cccc2nc(-c3nc4cc(C(F)(F)F)ccc4n3C)c(SCC)n12 [Example I-31] | 3.95 | – | – | – | – |
| CCSc1ccn2c(SCC)c(-c3nc4cc(C(F)(F)F)ccc4n3C)nc2c1 [Example I-32] | 4.23 | – | – | – | – |
| CCS(=O)(=O)c1c(-c2nc3cc(C(F)(F)F)ccc3n2C)nc2ccc(C(F)(F)F)cn12 [Example I-36] | 3.70 | – | 100% | 100% | – |
| CCSc1c(-c2nc3cc(C(F)(F)F)ccc3n2C)nc2cc(C)ccn12 [Example I-37] | 3.41 | – | – | – | – |
| CCSc1c(-c2nc3cc(C(F)(F)F)ccc3n2C)nc2ccc(C)cn12 [Example I-38] | 3.57 | – | – | – | – |
| CCS(=O)(=O)c1cccn2c(S(=O)(=O)CC)c(-c3nc4cc(C(F)(F)F)ncc4n3C)nc12 [Example I-39] | 2.30 | 2.29 | 100% | 100% | – |
| CCS(=O)(=O)c1c(-c2nc3cc4c(cc3[nH]2)OC(F)(F)O4)nc2ccccn12 [Example I-40, 6-[3-(Ethylsulphonyl)imidazo[1,2-a]pyridin-2-yl]-2,2-difluoro-5H-[1,3]dioxolo[4,5-f]benzimidazole] | – | 2.59 | – | 100% | chromatographic logP [1, 3]: 2.51; chromatographic logP [1, 4]: 2.59 |
| CCS(=O)(=O)c1c(-c2nc3cc(C(F)(F)F)ccc3n2C)nc2ccc(Cl)cn12 [Example I-42] | 3.34 | – | 100% | 100% | – |
| CCS(=O)(=O)c1c(-c2nc3cc(C(F)(F)F)ccc3s2)nc2ccccn12 [Example I-43] | 3.60 | – | – | – | efficacy (Phaedon cochleariae; 100 g/ha): 83% |
| CCS(=O)(=O)c1c(-c2nc3cc(C(F)(F)F)cnc3o2)nc2ccccn12 [Example I-44, 2-[3-(Ethylsulphonyl)imidazo[1,2-a]pyridin-2-yl]-6-(trifluoromethyl) [1,3]oxazolo[5,4-b]pyridine] | 2.53 | 2.52 | 83% | 100% | chromatographic logP [1, 4]: 2.52 |
| Cn1c(-c2nc3ccccn3c2Cl)nc2cc(C(F)(F)F)ncc21 [Example V-1, 2-(3-Chloroimidazo[1,2-a]pyridin-2-yl)-3-methyl-6-(trifluoromethyl)imidazo[4,5-c]pyridine] | – | – | – | – | chromatographic logP [1, 4]: 2.38 |
| O=C(O)c1nc2cc(C(F)(F)F)ccn2c1Cl [III-1, 3-Chloro-7-(trifluoromethyl)imidazo[1,2-a]pyridine-2-carboxylic acid] | – | – | – | – | chromatographic logP [1, 5]: 1.5 |
| CCOC(=O)c1nc2ccccn2c1SCC [XXII-1, Ethyl 3-(ethylsulphanyl)imidazo[1,2-a]pyridine-2-carboxylate] | – | – | – | – | chromatographic logP [1, 4]: 2.05 |
| CCS(=O)(=O)c1c(C(=O)O)nc2ccccn12 [XXIII-1, 3-(Ethylsulphonyl)imidazo[1,2-a]pyridine-2-carboxylic acid] | – | – | – | – | chromatographic logP [1, 5]: 0.54 |
| CCOC(=O)c1nc2ccccn2c1S(=O)(=O)CC [XXIV-1, Ethyl 3-(ethylsulphonyl)imidazo[1,2-a]pyridine-2-carboxylate] | – | – | – | – | chromatographic logP [1, 4]: 1.52 |
| CCSc1c(C(=O)Nc2cc(C(F)(F)F)cnc2Cl)nc2ccccn12 [XXVI-1, N-[2-Chloro-5-(trifluoromethyl)pyridin-3-yl]-3-(ethylsulphanyl)imidazo[1,2-a]pyridine-2-carboxamide] | – | – | – | – | chromatographic logP [1, 4]: 4.39 |

Now from value to molecule, other results behind:

| LOGP_HCOOH [1, 2] | LOGP_NEUTRAL ([1]; neutral range, 55° C.) | Compound | efficacy (Spodoptera frugiperda) | efficacy (Phaedon cochleariae; 500 g/ha) | other results |
| --- | --- | --- | --- | --- | --- |
| 3.20 | 3.22 | CCSc1c(-c2nc3cc(C(F)(F)F)ncc3n2C)nc2ccc(C)cn12 [Example I-45] | – | – | – |
| 3.51 | – | CCS(=O)(=O)c1c(-c2nc3cc(C(F)(F)F)cnc3o2)nc2ccc(C(F)(F)F)cn12 [Example I-47] | 83% | 100% | – |
| 3.53 | – | CCS(=O)(=O)c1c(-c2nc3cc(C(F)(F)F)cnc3o2)nc2cc(C(F)(F)F)ccn12 [Example I-49] | 100% | 100% | – |
| 4.14 | – | CCSc1c(-c2nc3cc(C(F)(F)F)cnc3o2)nc2cc(C(F)(F)F)ccn12 [Example I-50] | 100% | 100% | – |
| 3.21 | 3.20 | CCS(=O)(=O)c1c(-c2nc3cc(C(F)(F)F)cnc3s2)nc2ccccn12 [Example I-51] | – | – | – |
| 2.54 | 2.48 | CC[S+]([O-])c1c(-c2nc3cc(C(F)(F)F)ncc3n2C)nc2ccc(OC)cn12 (stereo not drawn) [Example I-55] | – | – | – |
| 2.89 | – | CCS(=O)(=O)c1c(-c2nc3cc(C(F)(F)F)cnc3o2)nc2ccc(C)cn12 [Example I-56] | – | – | – |
| 4.11 | – | CCSc1c(-c2nc3cc(C(F)(F)F)cnc3o2)nc2cccc(C(F)(F)F)n12 [Example I-57] | – | – | – |
| 4.14 | – | CCSc1c(-c2nc3cc(C(F)(F)F)cnc3o2)nc2ccc(C(F)(F)F)cn12 [Example I-58] | – | – | – |
| – | 3.15 | CCSc1c(-c2nc3cc(C(F)(F)F)cnc3o2)nc2ccccn12 [Example I-60, 2-[3-(Ethylsulphanyl)imidazo[1,2-a]pyridin-2-yl]-6-(trifluoromethyl) [1,3]oxazolo[5,4-b]pyridine] | – | – | chromatographic logP [1, 3]: 3.2; chromatographic logP [1, 4]: 3.15 |
